Reference: patent US7759345B2, “Antitumoral derivatives of ET-743” (priority 2001, dated 2010)

Columns and labels:
K-562 = assay: Inhibition of cells growth by colorimetric assay (SRB), K-562; assay type: cell-based
Method in brief: (§1)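 48 h SRB cytotoxicity assay; compound range 10–10^−8 μg/ml; seeding 5×10^3 cells/well, 18 h pre-attachment; OD 490 nm; GI, TGI, LC from triplicate means ± SD.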

A-549 = assay: Inhibition of cells growth by colorimetric assay (SRB), A-549; assay type: cell-based
Method in brief: as §1

SK-MEL-28 = assay: Inhibition of cells growth by colorimetric assay (SRB), SK-MEL-28; assay type: cell-based
Method in brief: as §1

HT-29 = assay: Inhibition of cells growth by colorimetric assay (SRB), HT-29; assay type: cell-based
Method in brief: as §1

LoVo = assay: Inhibition of cells growth by colorimetric assay (SRB), LoVo; assay type: cell-based
Method in brief: as §1

LoVo-Dox = assay: Inhibition of cells growth by colorimetric assay (SRB), LoVo-Dox; assay type: cell-based
Method in brief: as §1

DU-145 = assay: Inhibition of cells growth by colorimetric assay (SRB), DU-145; assay type: cell-based
Method in brief: as §1

LNCaP = assay: Inhibition of cells growth by colorimetric assay (SRB), LNCaP; assay type: cell-based; conditions: SRB, 48 hours exposure
Method in brief: as §1

SK-BR-3 = assay: Inhibition of cells growth by colorimetric assay (SRB), SK-BR-3; assay type: cell-based
Method in brief: as §1

IGROV-1 = assay: Inhibition of cells growth by colorimetric assay (SRB), IGROV-1; assay type: cell-based
Method in brief: as §1

IGROV-ET = assay: Inhibition of cells growth by colorimetric assay (SRB), IGROV-ET; assay type: cell-based
Method in brief: as §1

SK-OV-3 = assay: Inhibition of cells growth by colorimetric assay (SRB), SK-OV-3; assay type: cell-based
Method in brief: as §1

PANC-1 = assay: Inhibition of cells growth by colorimetric assay (SRB), PANC-1; assay type: cell-based
Method in brief: as §1

HMEC1 = assay: Inhibition of cells growth by colorimetric assay (SRB), HMEC1; assay type: cell-based
Method in brief: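 Growth inhibition is measured by sulforhodamine B staining of TCA-fixed cells after 48 h of compound exposure across 10 to 10^−8 μg/ml. Cells are seeded at 5×10^3 per well and grown drug-free for 18 h beforehand; absorbance at 490 nm yields GI, TGI and LC values.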

Liver = assay: In vitro toxicity, Liver
Source text: (§2) Toxicity was asssessed by the methods reported in Toxicology in Vitro, 15 (2001) 571-577, J. Luber Narod et al.: “Evaluation of the use of in vitro methodolodies as tools for screening new compounds for potential in vivo toxicity”.

Heart = assay: In vitro toxicity, Heart
Source text: as §2

Myelo = assay: In vitro toxicity, Myelo
Source text: as §2

Kidney = assay: In vitro toxicity, Kidney
Source text: as §2

Skeletal = assay: In vitro toxicity, Skeletal
Source text: as §2

For `COc1cc2c(cc1OC(=O)C(F)(F)C(F)(F)C(F)(F)F)CCN[C@]21CS[C@@H]2c3c(OC(C)=O)c(C)c4c(c3[C@H](COC1=O)N1C2[C@H]2c3c(cc(C)c(OC)c3O)C[C@@H]([C@@H]1O)N2C)OCO4` (some centres unmarked) [Compound 74], the GI50 (K-562; Homo sapiens, K562, 48 h, read-out: GI50 K-562) was 0.0526 nM, the LC50 (50% cell killing) (K-562; Homo sapiens, K562, 48 h, read-out: LC50 K-562, K-562, SRB, 48 hours exposure) was 0.661 nM and the “TGI K-562” value (K-562; K-562, SRB, 48 hours exposure) was 2.10E-10. The “TGI A-549” value (A-549; A-549, SRB, 48 hours exposure) was 9.04E-10, the GI50 (A-549; Homo sapiens, A549, 48 h, read-out: GI50 A-549) was 0.399 nM and the LC50 (concentration for 50% cell killing) (A-549; Homo sapiens, A549, 48 h, read-out: LC50 A-549, A-549, SRB, 48 hours exposure) was 6.38 nM. For the same compound, the GI50 (SK-MEL-28; Homo sapiens, SK-MEL-28, 48 h, read-out: GI50 MEL-28) was 0.275 nM, the CC50 (SK-MEL-28; Homo sapiens, SK-MEL-28, 48 h, read-out: LC50 MEL-28, MEL-28, SRB, 48 hours exposure) was 0.994 nM and the “TGI MEL-28” value (SK-MEL-28; MEL-28, SRB, 48 hours exposure) was 5.22E-10. For the same compound, the “TGI HT-29” value (HT-29; HT-29, SRB, 48 hours exposure) was 8.35E-10, the GI50 (HT-29; Homo sapiens, HT-29, 48 h, read-out: GI50 HT-29) was 0.354 nM and the LC50 (concentration for 50% cell killing) (HT-29; Homo sapiens, HT-29, 48 h, read-out: LC50 HT-29, HT-29, SRB, 48 hours exposure) was 10400 nM. The GI50 (LoVo; Homo sapiens, LoVo, 48 h, read-out: GI50 LOVO) was 0.369 nM, the LC50 (concentration for 50% cell killing) (LoVo; Homo sapiens, LoVo, 48 h, read-out: LC50 LOVO, LOVO, SRB, 48 hours exposure) was 11 nM and the “TGI LOVO” value (LoVo; LOVO, SRB, 48 hours exposure) was 1.16E-09. The GI50 (LoVo-Dox; Homo sapiens, 48 h, read-out: GI50 LOVO-DOX) was 6.31 nM, the CC50 (LoVo-Dox; Homo sapiens, 48 h, read-out: LC50 LOVO-DOX, LOVO-DOX, SRB, 48 hours exposure) was 359 nM and the “TGI LOVO-DOX” value (LoVo-Dox; LOVO-DOX, SRB, 48 hours exposure) was 6.33E-08. The “TGI DU-145” value (DU-145; DU-145, SRB, 48 hours exposure) was 7.61E-10, the GI50 (DU-145; Homo sapiens, DU-145, 48 h, read-out: GI50 DU-145) was 0.366 nM and the CC50 (DU-145; Homo sapiens, DU-145, 48 h, read-out: LC50 DU-145, DU-145, SRB, 48 hours exposure) was 2790 nM. For the same compound, the GI50 (LNCaP; Homo sapiens, LNCaP, 48 h, read-out: GI50 LNCAP, LNCAP) was 0.129 nM, the CC50 (LNCaP; Homo sapiens, LNCaP, 48 h, read-out: LC50 LNCAP, LNCAP) was 0.564 nM and the “TGI LNCAP” value (LNCaP; LNCAP) was 2.69E-10. For the same compound, the GI50 (SK-BR-3; Homo sapiens, SK-BR-3, 48 h, read-out: GI50 SK-BR3) was 0.275 nM, the CC50 (SK-BR-3; Homo sapiens, SK-BR-3, 48 h, read-out: LC50 SK-BR3, SK-BR3, SRB, 48 hours exposure) was 4.18 nM and the “TGI SK-BR3” value (SK-BR-3; SK-BR3, SRB, 48 hours exposure) was 7.64E-10. For the same compound, the GI50 (IGROV-1; Homo sapiens, IGROV-1, 48 h, read-out: GI50 IGROV) was 0.237 nM, the CC50 (IGROV-1; Homo sapiens, IGROV-1, 48 h, read-out: LC50 IGROV, IGROV, SRB, 48 hours exposure) was 0.911 nM and the “TGI IGROV” value (IGROV-1; IGROV, SRB, 48 hours exposure) was 4.65E-10. For the same compound, the GI50 (IGROV-ET; Homo sapiens, 48 h, read-out: GI50 IGROV-ET) was 1.76 nM, the CC50 (IGROV-ET; Homo sapiens, 48 h, read-out: LC50 IGROV-ET, IGROV-ET, SRB, 48 hours exposure) was 19.7 nM and the “TGI IGROV-ET” value (IGROV-ET; IGROV-ET, SRB, 48 hours exposure) was 4.69E-09. For the same compound, the GI50 (SK-OV-3; Homo sapiens, SK-OV-3, 48 h, read-out: GI50 SK-OV3) was 0.248 nM, the LC50 (SK-OV-3; Homo sapiens, SK-OV-3, 48 h, read-out: LC50 SK-OV3, SK-OV3, SRB, 48 hours exposure) was 1.11 nM and the “TGI SK-OV3” value (SK-OV-3; SK-OV3, SRB, 48 hours exposure) was 4.76E-10. For the same compound, the GI50 (PANC-1; Homo sapiens, PANC-1, 48 h, read-out: GI50 PANC-1) was 0.313 nM, the LC50 (concentration for 50% net cell kill) (PANC-1; Homo sapiens, PANC-1, 48 h, read-out: LC50 PANC-1, PANC-1, SRB, 48 hours exposure) was 2.55 nM and the “TGI PANC-1” value (PANC-1; PANC-1, SRB, 48 hours exposure) was 6.77E-10. The “TGI HMEC-1” value (HMEC1; HMEC-1, SRB, 48 hours exposure) was 1.45E-08, the GI50 (HMEC1; Homo sapiens, HMEC-1, 48 h, read-out: GI50 HMEC-1) was 0.598 nM and the LC50 (HMEC1; Homo sapiens, HMEC-1, 48 h, read-out: LC50 HMEC-1, HMEC-1, SRB, 48 hours exposure) was 4700 nM. For the same compound, the “Toxicity Data Liver” value (Liver) was 3.07E-08, the “Toxicity Data Heart” value (Heart) was 2.86E-08 and the “Toxicity Data Myelo” value (Myelo) was 3.30E-08. For the same compound, the “Toxicity Data Kidney” value (Kidney) was 3.05E-08 and the “Toxicity Data Skeletal” value (Skeletal) was 8.30E-10.
